Measurements taken from patent US9029325B2, “Amylin analogues and pharmaceutical compositions thereof” (Novo Nordisk A/S, priority 2011, dated 2015).
Starred links: 1 amine or outer side, 2 acyl side, 3 side chain; linkers in the order of their positions; H or OH if unused. Positions of bridges follow the written chain, without caps; N, C: chain ends. Residues, ends and D or L forms follow the SMILES beside them. *: point of attachment. C20 diacid = O=C(O)CCCCCCCCCCCCCCCCCCC(=O)*; C18 diacid = O=C(O)CCCCCCCCCCCCCCCCC(=O)*; γGlu = O=C(O)[C@H](CCC(=O)[*:2])N[*:1]

Experiment: Assay (I) efficacy testing on appetite (food intake), ad libitum fed rat model
Assay type: in vivo, Sprague Dawley (SD) rats
Settings: 3 nmol/kg
How it was run: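 Ad libitum fed SD rats (200-250 g) on a reversed light cycle, housed individually, received a single 0.01-3 mg/kg dose ip, po or sc just before lights-off. Individual food intake recorded hourly for 7 h, then at 24 h and sometimes 48 h, versus vehicle; Grubbs outliers excluded.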

Q: For `CC[C@H](C)[C@H](NC(=O)[C@@H]1CCCN1C(=O)CNC(=O)[C@H](Cc1ccccc1)NC(=O)[C@H](CC(N)=O)NC(=O)[C@H](CC(N)=O)NC(=O)[C@H](CO)NC(=O)[C@H](CO)NC(=O)[C@H](Cc1c[nH]cn1)NC(=O)[C@H](Cc1c[nH]cn1)NC(=O)[C@H](CC(C)C)NC(=O)[C@H](Cc1ccccc1)NC(=O)[C@H](CCC(=O)O)NC(=O)[C@H](C)NC(=O)[C@H](CC(C)C)NC(=O)[C@H](CCCNC(=N)N)NC(=O)[C@H](CCC(N)=O)NC(=O)[C@@H](NC(=O)[C@H](C)NC(=O)[C@@H]1CSSC[C@H](NC(=O)[C@H](CCC(=O)O)NC(=O)CC[C@H](NC(=O)CCCCCCCCCCCCCCCCCCC(=O)O)C(=O)O)C(=O)N[C@@H](CC(N)=O)C(=O)N[C@@H]([C@@H](C)O)C(=O)N[C@@H](C)C(=O)N[C@@H]([C@@H](C)O)C(=O)N1)[C@@H](C)O)C(=O)N[C@@H](CC(C)C)C(=O)N1CCC[C@H]1C(=O)N1CCC[C@H]1C(=O)N[C@H](C(=O)N[C@@H](CC(N)=O)C(=O)N[C@H](C(=O)NCC(=O)N[C@@H](CO)C(=O)N[C@@H](CC(N)=O)C(=O)N[C@H](C(=O)N[C@@H](Cc1ccc(O)cc1)C(N)=O)[C@@H](C)O)C(C)C)[C@@H](C)O` [compound 29] ({C20 diacid-γGlu}-ECNTATCATQRLAEFLHHSSNNFGPILPPTNVGSNTY-NH2; disulfide 2-7), which “Food intake reduction 0-24 h 3 nmol/kg (%)” value is on record?
A: The value was 15%.

Q: What about the “Food intake reduction 24-48 h 3 nmol/kg (%)” value of the same compound?
A: The value was 5%.

Q: For `CC[C@H](C)[C@H](NC(=O)[C@@H]1CCCN1C(=O)CNC(=O)[C@H](Cc1ccccc1)NC(=O)[C@H](CC(N)=O)NC(=O)[C@H](CC(N)=O)NC(=O)[C@H](CO)NC(=O)[C@H](CO)NC(=O)[C@H](Cc1c[nH]cn1)NC(=O)[C@H](Cc1c[nH]cn1)NC(=O)[C@H](CC(C)C)NC(=O)[C@H](Cc1ccccc1)NC(=O)[C@H](CCC(=O)O)NC(=O)[C@H](C)NC(=O)[C@H](CC(C)C)NC(=O)[C@H](CCCNC(=N)N)NC(=O)[C@H](CCC(N)=O)NC(=O)[C@@H](NC(=O)[C@H](C)NC(=O)[C@@H]1CSSC[C@H](NC(=O)[C@H](CCCCN)NC(=O)CC[C@H](NC(=O)CCCCCCCCCCCCCCCCC(=O)O)C(=O)O)C(=O)N[C@@H](CC(N)=O)C(=O)N[C@@H]([C@@H](C)O)C(=O)N[C@@H](C)C(=O)N[C@@H]([C@@H](C)O)C(=O)N1)[C@@H](C)O)C(=O)N[C@@H](CC(C)C)C(=O)N1CCC[C@H]1C(=O)N1CCC[C@H]1C(=O)N[C@H](C(=O)N[C@@H](CC(N)=O)C(=O)N[C@H](C(=O)NCC(=O)N[C@@H](CO)C(=O)N[C@@H](CC(N)=O)C(=O)N[C@H](C(=O)N[C@@H](Cc1ccc(O)cc1)C(N)=O)[C@@H](C)O)C(C)C)[C@@H](C)O` [compound 46] ({C18 diacid-γGlu}-KCNTATCATQRLAEFLHHSSNNFGPILPPTNVGSNTY-NH2; disulfide 2-7 (inferred); C-terminus assumed), which “Food intake reduction 0-24 h 3 nmol/kg (%)” value is on record?
A: The value was 54%.

Q: And the “Food intake reduction 24-48 h 3 nmol/kg (%)” value?
A: The value was 27%.

Q: With `CC[C@H](C)[C@H](NC(=O)[C@@H]1CCCN1C(=O)CNC(=O)[C@H](Cc1ccccc1)NC(=O)[C@H](CC(N)=O)NC(=O)[C@H](CC(N)=O)NC(=O)[C@H](CO)NC(=O)[C@H](CO)NC(=O)[C@H](Cc1c[nH]cn1)NC(=O)[C@H](CCCNC(=N)N)NC(=O)[C@H](CC(C)C)NC(=O)[C@H](Cc1ccccc1)NC(=O)[C@H](CCC(=O)O)NC(=O)[C@H](C)NC(=O)[C@H](CC(C)C)NC(=O)[C@H](CCCNC(=N)N)NC(=O)[C@H](CCC(N)=O)NC(=O)[C@@H](NC(=O)[C@H](C)NC(=O)[C@@H]1CSSC[C@H](NC(=O)[C@H](CCCCN)NC(=O)CC[C@H](NC(=O)CCCCCCCCCCCCCCCCCCC(=O)O)C(=O)O)C(=O)N[C@@H](CC(N)=O)C(=O)N[C@@H]([C@@H](C)O)C(=O)N[C@@H](C)C(=O)N[C@@H]([C@@H](C)O)C(=O)N1)[C@@H](C)O)C(=O)N[C@@H](CC(C)C)C(=O)N1CCC[C@H]1C(=O)N1CCC[C@H]1C(=O)N[C@H](C(=O)N[C@@H](CC(N)=O)C(=O)N[C@H](C(=O)NCC(=O)N[C@@H](CO)C(=O)N[C@@H](CC(N)=O)C(=O)N[C@H](C(=O)N[C@@H](Cc1ccc(O)cc1)C(N)=O)[C@@H](C)O)C(C)C)[C@@H](C)O` [compound 50] ({C20 diacid-γGlu}-KCNTATCATQRLAEFLRHSSNNFGPILPPTNVGSNTY-NH2; disulfide 2-7 (inferred); C-terminus assumed) as the compound, how does the “Food intake reduction 0-24 h 3 nmol/kg (%)” value read?
A: The value was 30%.

Q: What about the “Food intake reduction 24-48 h 3 nmol/kg (%)” value of the same compound?
A: The value was 8%.

Q: Which results are given for `CC[C@H](C)[C@H](NC(=O)[C@@H]1CCCN1C(=O)CNC(=O)[C@H](Cc1ccccc1)NC(=O)[C@H](CC(N)=O)NC(=O)[C@H](CC(N)=O)NC(=O)[C@H](CO)NC(=O)[C@H](CO)NC(=O)[C@H](Cc1c[nH]cn1)NC(=O)[C@H](Cc1c[nH]cn1)NC(=O)[C@H](CC(C)C)NC(=O)[C@H](Cc1ccccc1)NC(=O)[C@H](CCC(=O)O)NC(=O)[C@H](C)NC(=O)[C@H](CC(C)C)NC(=O)[C@H](CCCNC(=N)N)NC(=O)[C@H](CCC(N)=O)NC(=O)[C@@H](NC(=O)[C@H](C)NC(=O)[C@@H]1CSSC[C@H](NC(=O)[C@H](CCCCN)NC(=O)[C@H](CCC(=O)O)NC(=O)CC[C@H](NC(=O)CCCCCCCCCCCCCCCCCCC(=O)O)C(=O)O)C(=O)N[C@@H](CC(N)=O)C(=O)N[C@@H]([C@@H](C)O)C(=O)N[C@@H](C)C(=O)N[C@@H]([C@@H](C)O)C(=O)N1)[C@@H](C)O)C(=O)N[C@@H](CC(C)C)C(=O)N1CCC[C@H]1C(=O)N1CCC[C@H]1C(=O)N[C@H](C(=O)N[C@@H](CC(N)=O)C(=O)N[C@H](C(=O)NCC(=O)N[C@@H](CO)C(=O)N[C@@H](Cc1c[nH]cn1)C(=O)N[C@H](C(=O)N[C@@H](Cc1ccc(O)cc1)C(N)=O)[C@@H](C)O)C(C)C)[C@@H](C)O` [compound 56] ({C20 diacid-γGlu}-EKCNTATCATQRLAEFLHHSSNNFGPILPPTNVGSHTY-NH2; disulfide 3-8)?
A: Food intake reduction 0-24 h 3 nmol/kg (%): 46%; Food intake reduction 24-48 h 3 nmol/kg (%): 21%

Q: What does the source list for `CC[C@H](C)[C@H](NC(=O)[C@@H]1CCCN1C(=O)CNC(=O)[C@H](Cc1ccccc1)NC(=O)[C@H](CC(N)=O)NC(=O)[C@H](CC(N)=O)NC(=O)[C@H](CO)NC(=O)[C@H](CO)NC(=O)[C@H](Cc1c[nH]cn1)NC(=O)[C@H](CCCNC(=N)N)NC(=O)[C@H](CC(C)C)NC(=O)[C@H](Cc1ccccc1)NC(=O)[C@H](CCC(=O)O)NC(=O)[C@H](C)NC(=O)[C@H](CC(C)C)NC(=O)[C@H](CCCNC(=N)N)NC(=O)[C@H](CCC(N)=O)NC(=O)[C@@H](NC(=O)[C@H](C)NC(=O)[C@@H]1CSSC[C@H](NC(=O)[C@H](CCCCN)NC(=O)[C@H](Cc2c[nH]cn2)NC(=O)CC[C@H](NC(=O)CCCCCCCCCCCCCCCCC(=O)O)C(=O)O)C(=O)N[C@@H](CC(N)=O)C(=O)N[C@@H]([C@@H](C)O)C(=O)N[C@@H](C)C(=O)N[C@@H]([C@@H](C)O)C(=O)N1)[C@@H](C)O)C(=O)N[C@@H](CC(C)C)C(=O)N1CCC[C@H]1C(=O)N1CCC[C@H]1C(=O)N[C@H](C(=O)N[C@@H](CC(N)=O)C(=O)N[C@H](C(=O)NCC(=O)N[C@@H](CO)C(=O)N[C@@H](Cc1c[nH]cn1)C(=O)N[C@H](C(=O)N[C@@H](Cc1ccc(O)cc1)C(N)=O)[C@@H](C)O)C(C)C)[C@@H](C)O` [compound 71] ({C18 diacid-γGlu}-HKCNTATCATQRLAEFLRHSSNNFGPILPPTNVGSHTY-NH2; disulfide 3-8 (inferred); C-terminus assumed)?
A: Food intake reduction 0-24 h 3 nmol/kg (%): 10%; Food intake reduction 24-48 h 3 nmol/kg (%): 0%
